Laboratory results: PMC12298827, “Subchronic Toxicities of Four Per- and Polyfluoroalkyl Substances (PFASs) by Oral Exposure in Sprague–Dawley Rats” (Toxics, 2025)

System: male and female Sprague–Dawley rats
Assay: 90-day subchronic oral gavage toxicity study
Type: in vivo, rat
Protocol: Subchronic (90-day) studies were performed in accordance with current U.S. EPA’s Toxic Substances Control Act Good Laboratory Practice (GLP) Standards, with the following two general exceptions to the GLP guidelines: Analysis of the dose formulations was conducted according to RTI-approved Standard Operating Procedures, and corn oil (the vehicle) was not characterized (certificate of analysis from the vendor is available in the appendices to the final reports). Male and female Sprague–Dawley rats (five dose levels plus a control, n = 10/sex/dose group, corn oil vehicle dose volume of 3 mL/kg; oral gavage) were used in these studies, and the rats were euthanized on SD 91. The dose levels for PFHI were 0, 12.5, 25, 50, 100, and 200 mg/kg-day. The dose levels for MHFPK were 0, 18.8, 37.5, 75, 150, and 300 mg/kg-day. The dose levels for PFNAC were 0, 0.1, 0.3, 1.0, 3.0, and 10 mg/kg-day for male rats and 0, 0.3, 1.0, 3.0, 10, and 30 mg/kg-day for female rats. For CTFPA, the dose levels were 0, 1.9, 3.8. 7.5, 15, and 30 mg/kg-day for male rats and 0, 6.3, 12.5, 25, 50, and 100 mg/kg-day for female rats. For each PFAS, three batches of dosing solution were prepared. The time between the batch preparation of the dosing solutions ranged between 29 and 39 days. Blood samples were collected from all the rats at termination for serum chemistry, hematology, coagulation, and the analysis of the parent PFAS chemical in the plasma. In vivo data collection and further detail on the endpoints examined postmortem are described below.
The rats were observed twice daily for morbidity and mortality throughout the study period. At least once prior to randomization to test groups and weekly thereafter, the rats were physically examined, and bodyweights were obtained. Feed consumption was quantified weekly starting on SD 1.
Neurotoxicity was evaluated using the functional observational battery (FOB) and measuring locomotor activity (LMA) 2–4 h post dosing on SDs 78–80 and 80–84, respectively. For both the 14- and 90-day studies, an ophthalmologic examination was conducted prior to randomization and near the end of the study, using indirect ophthalmoscopy and slit–lamp biomicroscopy (as needed) after the administration of a mydriatic solution.
Hematology, biochemistry, and coagulation endpoints were measured at the termination of the study. A Siemens Advia 2120i hematology analyzer (Siemens Healthineers, Erlangen, Germany) was used to measure (or calculate) the parameters related to the complete blood count, leukocyte differential count, and reticulocyte count. The hematology parameters are listed and described in Table 2. The prothrombin time […] and activated partial thromboplastin time (APTT) were measured using an Instrumentation Laboratory (Bedford, MA, USA) ACL Elite Pro coagulation analyzer (laser–nephelometric centrifugal method).
At necropsy, the rats were visually examined for external abnormalities and organ weights (absolute and relative to the BW and brain weight), which were recorded (paired organs weighed together). The tissues were preserved in 10% neutral buffered formalin (NBF), except for the ocular tissues, testes, and epididymides, which were preserved in modified Davidson’s fixative and later transferred to 10% NBF. Bone marrow smears were prepared from the femurs, and the slides were air-dried, fixed in methanol, stained, and stored at room temperature for possible future evaluation. The preserved tissues were embedded in paraffin, sectioned, stained with hematoxylin and eosin, and examined by a board-certified veterinary pathologist.
Statistical analysis was performed using Provantis™ Version 10 or greater (Instem LSS, Limited; Stone, Staffordshire, UK). Differences among the treatment groups compared to the control were evaluated using one-way analysis of variance (ANOVA) if the underlying assumptions of a normal distribution (Shapiro–Wilk test) and the homogeneity of the variance (Levene’s test) were satisfied. […]

SMILES: FC(F)(F)C(F)(F)C(F)(F)C(F)(F)CCI [PFHI, 1H,1H,2H,2H-Perfluorohexyl iodide]
- Liver/Brain Weight (female, 200 mg/kg-day): 481%
- MPV (female, 200 mg/kg-day): 7.68 ± 0.44 fL
- PT (female, 200 mg/kg-day): 13.98 s
- Total BW change (female, 200 mg/kg-day): 108.57 g
- Total Food Consumed (female, 200 mg/kg-day): 1566 g
- BMD10, absolute kidney weight increase (male): 122 mg/kg-day
- BMD10, relative kidney weight increase (male): 69.7 mg/kg-day
- BMDL, absolute kidney weight increase (male): 83.8 mg/kg-day
- BMDL, relative kidney weight increase (male): 56.6 mg/kg-day
- LOEL, absolute kidney weight increase (male): 200 mg/kg-day
- LOEL, absolute liver weight increase (male): 100 mg/kg-day
- LOEL, relative kidney weight increase (male): 100 mg/kg-day
- LOEL, relative liver weight increase (male): 25 mg/kg-day
- NOEL, absolute kidney weight increase (male): 100 mg/kg-day
- NOEL, absolute liver weight increase (male): 50 mg/kg-day
- NOEL, relative kidney weight increase (male): 50 mg/kg-day
- NOEL, relative liver weight increase (male): 12.5 mg/kg-day
- % BW Gain (male, 12.5 mg/kg-day): 114.45%
- % Diff, % BW Gain (male, 12.5 mg/kg-day): 0.87%
- % Diff, Total BW change (male, 12.5 mg/kg-day): -1.78%
- % Diff, Total Food Consumed (male, 12.5 mg/kg-day): -6.69%
- A/G (male, 12.5 mg/kg-day): 0.91±0.04 ratio
- ALB (male, 12.5 mg/kg-day): 3.42 ± 0.25 g/dL
- ALPi (male, 12.5 mg/kg-day): 102.9±14.1 U/L
- APTT (male, 12.5 mg/kg-day): 23.37 s
- BUN (male, 12.5 mg/kg-day): 14.8 ± 2.0 mg/dL
- CHOL (male, 12.5 mg/kg-day): 87.5 ± 9.2 mg/dL
- GLOB (male, 12.5 mg/kg-day): 3.77 ± 0.18 g/dL
- GLUC (male, 12.5 mg/kg-day): 199.1 ± 29.5 mg/dL
- HCT (male, 12.5 mg/kg-day): 51.12±1.63%
- HGB (male, 12.5 mg/kg-day): 15.92 ± 0.40 g/dL
- Kidney Weight (male, 12.5 mg/kg-day): 3.04 g
- Kidney/Body Weight (male, 12.5 mg/kg-day): 0.51%
- Kidney/Brain Weight (male, 12.5 mg/kg-day): 140%
- Liver Weight (male, 12.5 mg/kg-day): 15.35 g
- Liver/Body Weight (male, 12.5 mg/kg-day): 2.59%
- Liver/Brain Weight (male, 12.5 mg/kg-day): 706%
- MPV (male, 12.5 mg/kg-day): 7.20 ± 0.26 fL
- PT (male, 12.5 mg/kg-day): 14.91 s
- Total BW change (male, 12.5 mg/kg-day): 319.83 g
- Total Food Consumed (male, 12.5 mg/kg-day): 2217 g
- % BW Gain (male, 25 mg/kg-day): 112.88%
- % Diff, % BW Gain (male, 25 mg/kg-day): -0.52%
- % Diff, Total BW change (male, 25 mg/kg-day): -1.33%
- % Diff, Total Food Consumed (male, 25 mg/kg-day): -4.60%
- A/G (male, 25 mg/kg-day): 0.88±0.10 ratio
- ALB (male, 25 mg/kg-day): 3.35 ± 0.14 g/dL
- ALPi (male, 25 mg/kg-day): 112.3±29.5 U/L
- APTT (male, 25 mg/kg-day): 29.06 s
- BUN (male, 25 mg/kg-day): 15.3 ± 2.1 mg/dL
- CHOL (male, 25 mg/kg-day): 101.5 ± 15.8 mg/dL
- GLOB (male, 25 mg/kg-day): 3.84 ± 0.36 g/dL
- GLUC (male, 25 mg/kg-day): 204.5 ± 34.6 mg/dL
- HCT (male, 25 mg/kg-day): 50.59±1.92%
- HGB (male, 25 mg/kg-day): 15.67 ± 0.55 g/dL
- Kidney Weight (male, 25 mg/kg-day): 3.20 g
- Kidney/Body Weight (male, 25 mg/kg-day): 0.54%
- Kidney/Brain Weight (male, 25 mg/kg-day): 147%
- Liver Weight (male, 25 mg/kg-day): 16.98 g
- Liver/Body Weight (male, 25 mg/kg-day): 2.85%
- Liver/Brain Weight (male, 25 mg/kg-day): 780%
- MPV (male, 25 mg/kg-day): 7.13 ± 0.21 fL
- PT (male, 25 mg/kg-day): 14.69 s
- Total BW change (male, 25 mg/kg-day): 321.29 g
- Total Food Consumed (male, 25 mg/kg-day): 2266 g
- % BW Gain (male, 50 mg/kg-day): 108.23%
- % Diff, % BW Gain (male, 50 mg/kg-day): -4.61%
- % Diff, Total BW change (male, 50 mg/kg-day): -5.67%
- % Diff, Total Food Consumed (male, 50 mg/kg-day): -6.15%
- A/G (male, 50 mg/kg-day): 0.91±0.04 ratio
- ALB (male, 50 mg/kg-day): 3.41 ± 0.12 g/dL
- ALPi (male, 50 mg/kg-day): 103.3±31.6 U/L
- APTT (male, 50 mg/kg-day): 20.03 s
- BUN (male, 50 mg/kg-day): 15.4 ± 1.8 mg/dL
- CHOL (male, 50 mg/kg-day): 100.2 ± 18.8 mg/dL
- GLOB (male, 50 mg/kg-day): 3.74 ± 0.13 g/dL
- GLUC (male, 50 mg/kg-day): 196.8 ± 40.7 mg/dL
- HCT (male, 50 mg/kg-day): 49.78±1.69%
- HGB (male, 50 mg/kg-day): 15.53 ± 0.59 g/dL
- Kidney Weight (male, 50 mg/kg-day): 3.25 g
- Kidney/Body Weight (male, 50 mg/kg-day): 0.56%
- Kidney/Brain Weight (male, 50 mg/kg-day): 143.1%
- Liver Weight (male, 50 mg/kg-day): 17.05 g
- Liver/Body Weight (male, 50 mg/kg-day): 2.92%
- Liver/Brain Weight (male, 50 mg/kg-day): 754%
- MPV (male, 50 mg/kg-day): 7.30 ± 0.36 fL
- PT (male, 50 mg/kg-day): 15.14 s
- Total BW change (male, 50 mg/kg-day): 307.16 g
- Total Food Consumed (male, 50 mg/kg-day): 2229 g
- % BW Gain (male, 100 mg/kg-day): 106.43%
- % Diff, % BW Gain (male, 100 mg/kg-day): -6.20%
- % Diff, Total BW change (male, 100 mg/kg-day): -9.44%
- % Diff, Total Food Consumed (male, 100 mg/kg-day): -5.67%
- A/G (male, 100 mg/kg-day): 0.87±0.20 ratio
- ALB (male, 100 mg/kg-day): 3.34 ± 0.53 g/dL
- ALPi (male, 100 mg/kg-day): 103.2±19.1 U/L
- APTT (male, 100 mg/kg-day): 26.73 s
- BUN (male, 100 mg/kg-day): 15.7 ± 3.2 mg/dL
- CHOL (male, 100 mg/kg-day): 112.4 ± 25.0 mg/dL
- GLOB (male, 100 mg/kg-day): 3.97 ± 0.63 g/dL
- GLUC (male, 100 mg/kg-day): 171.8 ± 39.0 mg/dL
- HCT (male, 100 mg/kg-day): 50.60±2.40%
- HGB (male, 100 mg/kg-day): 15.71 ± 0.74 g/dL
- Kidney Weight (male, 100 mg/kg-day): 3.38 g
- Kidney/Body Weight (male, 100 mg/kg-day): 0.60%
- Kidney/Brain Weight (male, 100 mg/kg-day): 156%
- Liver Weight (male, 100 mg/kg-day): 18.32 g
- Liver/Body Weight (male, 100 mg/kg-day): 3.24%
- Liver/Brain Weight (male, 100 mg/kg-day): 843%
- MPV (male, 100 mg/kg-day): 7.22 ± 0.38 fL
- PT (male, 100 mg/kg-day): 15.16 s
- Total BW change (male, 100 mg/kg-day): 294.89 g
- Total Food Consumed (male, 100 mg/kg-day): 2241 g
- % BW Gain (male, 200 mg/kg-day): 100.73%
- % Diff, % BW Gain (male, 200 mg/kg-day): -11.23%
- % Diff, Total BW change (male, 200 mg/kg-day): -14.29%
- % Diff, Total Food Consumed (male, 200 mg/kg-day): -8.27%
- A/G (male, 200 mg/kg-day): 0.91±0.04 ratio
- ALB (male, 200 mg/kg-day): 3.55 ± 0.21 g/dL
- ALPi (male, 200 mg/kg-day): 117.5±29.4 U/L
- APTT (male, 200 mg/kg-day): 25.80 s
- BUN (male, 200 mg/kg-day): 16.5 ± 2.0 mg/dL
- CHOL (male, 200 mg/kg-day): 149.1 ± 27.7 mg/dL
- GLOB (male, 200 mg/kg-day): 3.92 ± 0.23 g/dL
- GLUC (male, 200 mg/kg-day): 163.2 ± 18.4 mg/dL
- HCT (male, 200 mg/kg-day): 47.32±1.57%
- HGB (male, 200 mg/kg-day): 14.88 ± 0.44 g/dL
- Kidney Weight (male, 200 mg/kg-day): 3.60 g
- Kidney/Body Weight (male, 200 mg/kg-day): 0.66%
- Kidney/Brain Weight (male, 200 mg/kg-day): 168%
- Liver Weight (male, 200 mg/kg-day): 20.17 g
- Liver/Body Weight (male, 200 mg/kg-day): 3.70%
- Liver/Brain Weight (male, 200 mg/kg-day): 944%
- MPV (male, 200 mg/kg-day): 7.33 ± 0.31 fL
- PT (male, 200 mg/kg-day): 15.32 s
- Total BW change (male, 200 mg/kg-day): 279.08 g
- Total Food Consumed (male, 200 mg/kg-day): 2179 g
